Data on three molecules can be found in US7048919B2, “Osteoclast secreted chemokine and uses thereof” (The UAB Research Foundation, priority 2000, dated 2006).

One test concerns calmodulin. In words: Calmodulin protein levels in osteoclasts. The class given is cell-based, avian. As to conditions: for calmodulin protein levels: PMA treated osteoclasts.
Test [1] concerns avian osteoclasts. In words: Osteoclastic bone resorption assay (3H proline release from labeled bone). The test is classed as cell-based, avian (white Leghorn hens). As to conditions: for effect on PMA stimulated increase in bone resorption: PMA stimulated osteoclasts. Here is the method:
Bone resorption assays using 150 μg labeled bone were cultured for four days in the presence of increasing concentrations of PMA. Resorption activity was quantified by measuring ^3H proline released to the media. Data represent the mean +/− SEM of n=5 experiments each performed in quadruplicate.
Avian osteoclasts (from egg-laying white Leghorn hens) were utilized because gram quantities of pure osteoclasts are readily obtained. Avian osteoclasts (>10^7 cells) were isolated as previously described (16). Laying hens on a limited calcium diet produce massive numbers of osteoclasts to meet the calcium requirement for eggshell production. The endosteum of such birds, is >50% osteoclasts by mass. Medullary bone is scraped from the endosteum into calcium- and magnesium-free phosphate-buffered saline (PBS) at 4° C. Cells are separated from matrix by washing through 100 μm nylon filters and sedimented through 70% newborn calf serum. Osteoclasts purified by density gradient sedimentation, result in preparations in which osteoclasts represent ˜75–90% of viable cells. Following sedimentation, macrophages represent <2% of the cell mass. For experiments requiring homogeneous osteoclasts the cells purified by serum sedimentation are then affinity purified b y attachment to bone fragments and then resedimented 24 hrs later, eliminating essentially all but viable, bone-attached osteoclasts (17).
L-[^3H]-proline-labeled devitalized bone is used as Substrate in the avian osteoclast resorption assay. This substrate has the advantages of reflecting removal of both the mineral and organic phases of bone, and is resistant to artifacts due to physicochemical exchange (e.g. media acidification (16)). Weanling rats (40–60 g) are injected with 1 mCi of L-[2,3,4,5−^3H]-proline, >100 Ci/mmol, on alternate days for 10 days. Rats are sacrificed on day 12 and bone recovered by dissection. After washing, the bone is dried in a desiccator at 42° C. for 7 days. Labeled 20–40 μm bone fragments are obtained by grinding the bone in a ball bearing mill and sieving to size.
Osteoclasts are plated at 2–3×10^3 cells/well on 24 well plates with 100 μg of labeled 20–40 μm ^3H labeled bone fragments. To avoid possible contamination (due to fusing macrophages or growth of fibroblast/osteoblast cells) bone resorption is measured after 4 days. Osteoclasts rapidly (˜4 hrs) attach to and begin to degrade the bone fragments, releasing label into the media. Bone degradation is determined by measuring label released to the media. […] The ^3H proline assay is also resistant to pH-dependent artifacts and has less inter-assay variability than pi t assays (17–19). Activity, with 100 μg bone fragments, is linear over 5–7 days (16).

Test [2] deals with avian osteoclasts. In words: mim-1 secretion by osteoclasts, Western analysis of lysates and media. The settings on record: for effect on secretion of mim-1: PMA stimulated osteoclasts. The class given is cell-based. Here is the method:
Avian osteoclasts were cultured as described in FIGS. 1 and 2; cells were washed with ice cold PBS and lysed. Culture media was collected from each treatment and boiled in sample buffer. Protein (25 μg) from cell lysates (Lysates) and equal aliquots of the corresponding media (Media) were resolved on 10% SDS-PAGE, transferred to PVDF membrane and Western blotted for mim-1. Molecular weights (kilodaltons) are indicated on the left. Representative of n=2 separate experiments.
Avian osteoclasts were cultured with bone (1 mg/well) for the indicated times in the presence of 0.3 μM PMA. Osteoclasts were washed with ice-cold phosphate buffered saline, lysed and 25 μg cell lysates resolved on 10% SDS-PAGE, transferred to PVDF membrane and probed with for mim-1 as described in the legend to FIG. 4. Data is representative of two separate experiments.
Avian osteoclasts are washed with phosphate buffered saline (PBS) and lysed as previously described (20). The lysis buffer (Buffer A) is 50 mM Tris, pH 7.0, 250 mM sucrose, 1 mM EGTA, 1 mM EDTA, 1 mM ammonium molybdate, 50 mM NaF, 1 mM orthovanadate, 0.5 μM okadaic acid, 5 mM benzamidine, 0.1 mM PMSF, 0.05 mg/ml pepstatin, 0.06 mg/ml leupeptin, 0.018 trypsin inhibitor units of aprotinin/ml, 10% glycerol and 1% Triton X100. Cells were solubilized 1 hr with rotation and the Triton insoluble material removed by centrifugation at 15,000×g for 5 min at 4° C. Lysates (25 μg protein) were resolved on 10% SDS-PAGE. Protein was transferred under standard conditions (21) to PVDF membranes. Mim-1 was detected on Western analysis using a polyclonal antibody generated against a trpE-mim-1 fusion protein (15) (generously provided by Scott Ness, University of New Mexico) by enhanced chemiluminescence. Protein concentrations were determined by the Bio Rad DC assay (Bio Rad, Richmond, Calif.).
To determine the effects of PMA on osteoclast secretion of mim-1 and its relation to bone resorption, osteoclasts were cultured as described above in the presence of the indicated concentrations of PMA and aliquots of media removed at the indicated times (FIG. 4) and the level of mim-1 determined b y Western analysis. As bone resorption was stimulated (see FIG. 1), mim-1 dercreased in the cell lysate (FIG. 4, left, Lysates) and increased in the culture, media (FIG. 4, right, Media).

“Also recorded” adds a separate entry of the source.

`CCCCCCCCCCCCCC(=O)O[C@@H]1[C@@H](C)[C@@]2(O)[C@@H](C=C(CO)C[C@]3(O)C(=O)C(C)=C[C@@H]23)[C@@H]2C(C)(C)[C@]12OC(C)=O` [PMA, phorbol myristate acetate]: the calmodulin protein levels result with calmodulin was “increase in calmodulin protein levels”; in the test with calmodulin (listed as Phorbol myristate acetate) it was “dose dependent increase”. Moreover, the EC50 with avian osteoclasts [1] (Osteoclast, 96 h, read-out: K0.5 of stimulation of bone resorption) fell in the range of 100 to 300 nM. In addition, the “stimulation of bone resorption by isolated osteoclasts” value in the test with avian osteoclasts [1] (isolated avian osteoclasts, 4 days, 3H proline released to media) is listed as 4 fold. In addition, the “mim-1 in osteoclast cell lysates” value in the test with avian osteoclasts [2] (0.3 μM PMA, 24 hours) is listed as “substantially reduced”. Further, the “secretion of mim-1 by osteoclasts” value in the test on avian osteoclasts [2] (increasing concentrations of PMA) is recorded as “rapidly increased; also recorded: stimulated in a PMA concentration dependent manner”.
In the case of `CC/C(=C(\c1ccccc1)c1ccc(OCCN(C)C)cc1)c1ccccc1` [tamoxifen], in the test with calmodulin (PMA stimulated osteoclasts), the “effect on PMA dependent increase in calmodulin levels” value is “inhibit”. The “effect on PMA stimulated increase in bone resorption” value in the test with avian osteoclasts [1] is “inhibited”. Moreover, the “effect on secretion of mim-1” value in the test on avian osteoclasts [2] was “did not inhibit”.
In the case of `CN1CCN(CCCN2c3ccccc3Sc3ccc(C(F)(F)F)cc32)CC1` [trifluoperazine], the “effect on PMA stimulated increase in bone resorption” value in the test on avian osteoclasts [1] was “inhibited”. The “effect on secretion of mim-1” value in the test on avian osteoclasts [2] was “did not inhibit”.
